Assay results from article PMC7719179, “Small molecule inhibition of Dynamin-dependent endocytosis targets multiple niche signals and impairs leukemia stem cells” (Nature Communications, 2020).
Where “and” joins values, the source holds several entries; their conditions need not be identical. Identical values can stand only once.

Columns and labels:
[1] = system: IL-3R, GM-CSFR and c-Kit endocytosis in Ba/F3-SGM3R cells; experiment: Surface expression of IL-3R, GM-CSFR and KIT in Ba/F3-SGM3R cells; format: cell-based, murine; settings: result in words
Excerpt: The coding sequence of murine Csf2ra (gm-csfr) and c-Kit was amplified by PCR from cDNA of bone marrow mononuclear cells of a healthy WT donor using primers mGmcsfr-FL-F and mGmcsfr-FL-R, and mKit-FL-F and mKit-FL-R, respectively (Table 3). The PCR product was cloned into the XhoI and EcoRI sites of pMIG-R1, which was kindly given by Pear et al.[82],[83]. Ba/F3 cells were infected with pMIG-R1/Gmcsfr retroviral supernatants produced in 293T cells, transduced cells were sorted with a BD Influx (BD Australia) and selected by culture in medium supplemented with 25 ng/mL rmGm-csf (#305-03, Pepro Tech, Rocky Hill NJ, USA) for 7 days. Finally, Ba/F3 cells stably expressing Gm-csfr were infected with pMIG-R1/Kit retroviral supernatants produced in 293T cells to generate Ba/F3-SMG3R cells, which were sorted with a BD Influx and maintained in medium supplemented with 5 ng/mL rmIL-3 (#213-13, Pepro Tech, Rocky Hill NJ, USA).
Mean fluorescence intensity (MFI) ± SD of n=3 biological replicates are shown (*P<0.05, ** P<0.01, ***P<0.001 compared to vehicle) . Basal levels of pStat5 and pErk were measured in unstimulated BaF3-SGM3 R cells (white bar). c, Correlative studies between the relative levels of pStat5 (left) or pErk (right) and the relative survival of BaF3-SGM3R cells treated Dynole 34-2 . […]
in BaF3-SGM3R cells treated with Dynole 34-2 . […] Baseline measured in unstimulated BaF3-SGM3 R cells

[2] = Pharmacokinetic analysis of serum levels after a single intraperitoneal dose; format: in vivo; settings: ip, mouse, single intraperitoneal dose 30 mg/Kg
Experimental: All experiments were pre-approved by the University of Melbourne Animal Ethics Committee (Ethics ID: 0911153.1). […] Five different time points were chosen to measure drug level: 15, 30, 60 120 and 240 min after intraperitoneal injection of the recipients. At each time points, treated mice were killed by lethal injection of 0.01 mL/g of Lethobarb® (325 mg pentobarbitone sodium/mL). Following this, blood was collected via intra-cardiac puncture, blood was then allowed to clot at room temperature for 15 min, then centrifuged at 1500 × g for 6 min to separate out the cells and serum. The serum was collected, weighed, snap frozen in dry ice and stored at −80 °C.
Drug-free mouse serum was used as negative controls. Serum blanks, including calibration standard and quality control samples, were prepared by protein precipitation. Selectivity was evaluated by comparing chromatograms of six blank blood samples from six different sources to make sure there were no significant interfering peaks at retention time of analysis. The maximum serum concentration (Cmax) and the time to reach Cmax (Tmax) were directly obtained from the experimental data. The time needed for 50% reduction in the serum concentration (terminal half-life; T1/2) was calculated from the mean values (n = 5) using GraphPad Prism 8.

[3] = system: HES1 in patient-derived ETP-ALL and T-ALL cells; experiment: NOTCH1-induced HES1 in human ETP-ALL and T-ALL xenograft cells; format: cell-based; settings: for HES1 relative expression, FOLD: fold over unstimulated
Experimental: Splenocytes from secondary xenografts were processed as previously described. […] Flow cytometric analysis of surface IL-7R levels and intracellular levels of pSTAT5 were performed as described in the FACS analysis section. For activation of NOTCH1-mediated signalling, 5 × 10^5 rested leukemia cells were seeded on OP9-DL1 stromal cells. Co-culture on OP9 stromal cells was used as a negative control. After 16 h of co-culture, leukemia cells were washed twice using cold PBS 1×. Flow cytometric analysis of NOTCH1 expression and intracellular levels of HES1 were performed as described in the FACS analysis section.

CCCCCCCCNC(=O)C(C#N)=Cc1cn(CCCN(C)C)c2ccccc12 [Dynole 34-2, 2-Cyano-N-octyl-3-(1-(3-dimethylaminopropyl)-1H-indol-3-yl)-acrylamide]
endocytosis of c-Kit, GM-CSFR and IL-3R [1]: impaired endocytosis | Cmax ([2]; read-out: average maximum concentration (Cmax) in serum): > 4 µM | half-life ([2]; read-out: estimated half-life in serum): 30 min | HES1 relative expression, MFI ([3]; ALL8): 4877 MFI and 4405 MFI | HES1 relative expression, FOLD ([3]; ALL8): 0.60 FOLD and 0.67 FOLD | HES1 relative expression, MFI ([3]; ALL16): 5772 MFI and 5666 MFI | HES1 relative expression, FOLD ([3]; ALL16): 0.83 FOLD and 0.85 FOLD | HES1 relative expression, MFI ([3]; ALL29): 5243 MFI and 5145 MFI | HES1 relative expression, FOLD ([3]; ALL29): 0.70 FOLD and 0.71 FOLD | HES1 relative expression, MFI ([3]; ALL31): 5977 MFI and 5691 MFI | HES1 relative expression, FOLD ([3]; ALL31): 0.71 FOLD and 0.74 FOLD | HES1 relative expression, MFI ([3]; ALL33): 6590 MFI and 6678 MFI | HES1 relative expression, FOLD ([3]; ALL33): 0.90 FOLD and 0.89 FOLD | HES1 relative expression, MFI ([3]; ETP1): 6721 MFI and 6600 MFI | HES1 relative expression, FOLD ([3]; ETP1): 0.88 FOLD and 0.90 FOLD | HES1 relative expression, MFI ([3]; ETP5): 7460 MFI and 7513 MFI | HES1 relative expression, FOLD ([3]; ETP5): 0.72 FOLD | HES1 relative expression, MFI ([3]; ETP8): 6107 MFI and 5672 MFI | HES1 relative expression, FOLD ([3]; ETP8): 0.72 FOLD and 0.78 FOLD | HES1 relative expression, MFI ([3]; ETP12): 6018 MFI and 5803 MFI | HES1 relative expression, FOLD ([3]; ETP12): 0.87 FOLD and 0.89 FOLD | HES1 relative expression, MFI ([3]; ETP13): 4629 MFI and 4445 MFI | HES1 relative expression, FOLD ([3]; ETP13): 0.69 FOLD and 0.72 FOLD | HES1 relative expression, MFI ([3]; ETP14): 4477 MFI and 4496 MFI | HES1 relative expression, FOLD ([3]; ETP14): 0.89 FOLD and 0.86 FOLD | HES1 protein levels ([3]; immature and mature subtypes of human T-ALL, result in words): significantly decreased
